Measurements reported in patent US10986838B2, “Herbicides” (SYNGENTA PARTICIPATIONS AG, priority 2016, dated 2021).

Legend:
Format in all cases: in vivo
[1] = test system: Abutilon theophrasti (ABUTH); test: Pre-emergence herbicidal activity (B1); conditions: Test 1b, 1000 g/ha, evaluated after 13 days, 5=total damage to plant, 0=no damage to plant
Description: (§1) B1 Pre-Emergence Herbicidal Activity Seeds of a variety of test species were sown in standard soil in pots: Triticum aestivium (TRZAW), Avena fatua (AVEFA), Alopecurus myosuroides (ALOMY), Echinochloa crus-galli (ECHCG), Lolium perenne (LOLPE), Zea Mays (ZEAMX), Abutilon theophrasti (ABUTH), Amaranthus retroflexus (AMARE) and Setaria faberi (SETFA). After cultivation for one day (pre-emergence) under controlled conditions in a glasshouse (at 24/16° C., day/night; 14 hours light; 65% humidity), the plants were sprayed with an aqueous spray solution derived from the formulation of the technical active ingredient in acetone/water (50:50) solution containing 0.5% Tween 20 (polyoxyethelyene sorbitan monolaurate, CAS RN 9005-64-5). The test plants were then grown in a glasshouse under controlled conditions (at 24/16° C., day/night; 14 hours light; 65% humidity) and watered twice daily. After 13 days, the test was evaluated (5=total damage to plant; 0=no damage to plant). Tables B1a and B1b Control of Weed Species by Compound of Formula (I) after Pre-Emergence Application

[2] = test system: Amaranthus retroflexus (AMARE); test: Pre-emergence herbicidal activity (B1); conditions: Test 1b, 1000 g/ha, evaluated after 13 days, 5=total damage to plant, 0=no damage to plant
Description: as §1

[3] = test system: Echinochloa crus-galli (ECHCG); test: Pre-emergence herbicidal activity (B1); conditions: Test 1b, 1000 g/ha, evaluated after 13 days, 5=total damage to plant, 0=no damage to plant
Description: as §1

[4] = test system: Lolium perenne (LOLPE); test: Pre-emergence herbicidal activity (B1); conditions: Test 1b, 1000 g/ha, evaluated after 13 days, 5=total damage to plant, 0=no damage to plant
Description: as §1

[5] = test system: Setaria faberi (SETFA); test: Pre-emergence herbicidal activity (B1); conditions: Test 1b, 1000 g/ha, evaluated after 13 days, 5=total damage to plant, 0=no damage to plant
Description: as §1

[6] = test system: Zea Mays (ZEAMX); test: Pre-emergence herbicidal activity (B1); conditions: Test 1b, 1000 g/ha, evaluated after 13 days, 5=total damage to plant, 0=no damage to plant
Description: as §1

[7] = test system: Abutilon theophrasti (ABUTH); test: Post-emergence herbicidal activity (B2); conditions: Test B2b, 1000 g/ha, evaluated after 13 days, 5=total damage to plant, 0=no damage to plant
Description: (§2) B2 Post-Emergence Herbicidal Activity Seeds of a variety of test species were sown in standard soil in pots: Triticum aestivium (TRZAW), Avena fatua (AVEFA), Alopecurus myosuroides (ALOMY), Echinochloa crus-galli (ECHCG), Lolium perenne (LOLPE), Zea Mays (ZEAMX), Abutilon theophrasti (ABUTH), Amaranthus retroflexus (AMARE) and Setaria faberi (SETFA). After 8 days cultivation (post-emergence) under controlled conditions in a glasshouse (at 24/16° C., day/night; 14 hours light; 65% humidity), the plants were sprayed with an aqueous spray solution derived from the formulation of the technical active ingredient in acetone/water (50:50) solution containing 0.5% Tween 20 (polyoxyethelyene sorbitan monolaurate, CAS RN 9005-64-5). The test plants were then grown in a glasshouse under controlled conditions (at 24/16° C., day/night; 14 hours light; 65% humidity) and watered twice daily. After 13 days, the test was evaluated (5=total damage to plant; 0=no damage to plant). Tables B2a and B2b Control of Weed Species by Compound of Formula (I) after Post-Emergence Application

[8] = test system: Amaranthus retroflexus (AMARE); test: Post-emergence herbicidal activity (B2); conditions: Test B2b, 1000 g/ha, evaluated after 13 days, 5=total damage to plant, 0=no damage to plant
Description: as §2

[9] = test system: Echinochloa crus-galli (ECHCG); test: Post-emergence herbicidal activity (B2); conditions: Test B2b, 1000 g/ha, evaluated after 13 days, 5=total damage to plant, 0=no damage to plant
Description: as §2

[10] = test system: Lolium perenne (LOLPE); test: Post-emergence herbicidal activity (B2); conditions: Test B2b, 1000 g/ha, evaluated after 13 days, 5=total damage to plant, 0=no damage to plant
Description: as §2

[11] = test system: Setaria faberi (SETFA); test: Post-emergence herbicidal activity (B2); conditions: Test B2b, 1000 g/ha, evaluated after 13 days, 5=total damage to plant, 0=no damage to plant
Description: as §2

[12] = test system: Zea Mays (ZEAMX); test: Post-emergence herbicidal activity (B2); conditions: Test B2b, 1000 g/ha, evaluated after 13 days, 5=total damage to plant, 0=no damage to plant
Description: as §2

| SMILES | ABUTH damage score [1] | AMARE damage score [2] | ECHCG damage score [3] | LOLPE damage score [4] | SETFA damage score [5] | ZEAMX damage score [6] | ABUTH damage score [7] | AMARE damage score [8] | ECHCG damage score [9] | LOLPE damage score [10] | SETFA damage score [11] | ZEAMX damage score [12] |
| --- | --- | --- | --- | --- | --- | --- | --- | --- | --- | --- | --- | --- |
| Fc1cncc(-c2ccc(NCc3ccccc3)c(C(F)(F)F)n2)c1 [Compound A21] | 0 | 1 | 3 | 2 | 5 | 3 | 0 | 1 | 1 | 1 | 5 | 5 |
| C=CCNc1ccc(-c2cncc(F)c2)nc1C(F)(F)F [Compound A25] | 0 | 1 | 4 | 2 | 4 | 5 | 0 | 2 | 4 | 3 | 5 | 5 |
| N#Cc1nc(-c2cncc(F)c2)ccc1N [Compound A9, 3-amino-6-(5-fluoro-3-pyridyl)pyridine-2-carbonitrile] | 1 | 1 | 4 | 0 | 4 | 2 | 1 | 1 | 4 | 1 | 4 | 4 |
| Nc1ccc(-c2cncc(F)c2)nc1C(F)(F)F [Compound A33, 6-(5-fluoro-3-pyridyl)-2-(trifluoromethyl)pyridin-3-amine] | 0 | 1 | 2 | 2 | 4 | 4 | 1 | 2 | 3 | 3 | 5 | 5 |
| Fc1ccc(CNc2ccc(-c3cncc(F)c3)nc2C(F)(F)F)cc1 [Compound A31] | 1 | 1 | 4 | 2 | 5 | 4 | 0 | 1 | 4 | 3 | 5 | 5 |
| COC(=O)CNc1ccc(-c2cncc(F)c2)nc1C(F)(F)F [Compound A22] | 0 | 3 | 4 | 2 | 4 | 5 | 2 | 3 | 5 | 4 | 5 | 5 |
| CNc1ccc(-c2cccnc2)nc1C(F)(F)F [Compound A11] | 1 | 1 | 2 | 1 | 5 | 1 | 1 | 1 | 4 | 4 | 5 | 2 |
| Fc1cncc(-c2ccc(NCc3ccc(C(F)(F)F)cc3)c(C(F)(F)F)n2)c1 [Compound A26] | 0 | 0 | 2 | 0 | 4 | 2 | 0 | 0 | 3 | 2 | 4 | 5 |
